Measurements reported in publication PMC4794339 (Molecular and biochemical parasitology, 2016).
Where two headings read alike, the source gives them in different places.

How the values were obtained:
[1] = molecular target: T1, T. cruzi glucokinase (TcGlcK) (Trypanosoma cruzi, UniProt Q4E4E1); format: biochemical; settings: for LE (ligand efficiency): LE = −RTlnKi/N, N non-hydrogen atoms, TcGlcK inhibition; for TcGlcK selectivity ratio: Ki (HsHxKIV) / Ki (TcGlcK); for fold weaker TcGlcK inhibition compared to CBZ-GlcN: ratio of Ki values
[2] = system: T. cruzi (Tulahuen strain) intracellular amastigotes; test: intracellular amastigote growth inhibition in NIH-3T3 fibroblasts; format: cell-based, Trypanosoma cruzi; settings: for changes in the percent activity: at 50 μM, highest concentration tested
[3] = system: T. cruzi (Tulahuen strain) intracellular amastigotes; settings: read-out: T. cruzi IC50, reported value, cited from earlier work
T. cruzi parasites = settings: acute stage; cited from earlier work
[4] = molecular target: T2, Homo sapiens hexokinase IV (HsHxKIV) (Homo sapiens, UniProt P35557); format: biochemical; settings: read-out: KM for D-glucose, His6-HsHxKIV; truncated construct; 22 °C, pH 7.6
T2 sequence (P35557 12-457 limits assumed): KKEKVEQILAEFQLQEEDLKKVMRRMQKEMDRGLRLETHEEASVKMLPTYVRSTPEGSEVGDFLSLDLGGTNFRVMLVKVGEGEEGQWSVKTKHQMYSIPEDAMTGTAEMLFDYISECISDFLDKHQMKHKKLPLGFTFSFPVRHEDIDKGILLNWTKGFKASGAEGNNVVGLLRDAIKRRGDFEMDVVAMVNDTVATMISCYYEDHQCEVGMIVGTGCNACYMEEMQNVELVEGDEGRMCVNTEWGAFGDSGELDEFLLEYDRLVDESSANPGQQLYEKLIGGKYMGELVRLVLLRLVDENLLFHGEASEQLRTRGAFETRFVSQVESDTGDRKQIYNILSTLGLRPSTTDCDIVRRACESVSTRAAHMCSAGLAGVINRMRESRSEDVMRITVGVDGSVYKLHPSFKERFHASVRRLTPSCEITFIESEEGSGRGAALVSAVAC

[5] = system: T. cruzi hexokinase (TcHxK); settings: read-out: KM for D-glucose catalysis, TcHxK; cited from earlier work
[6] = molecular target: T1, T. cruzi glucokinase (TcGlcK); settings: read-out: KM for D-glucose, TcGlcK; room temperature, pH 8.5; cited from earlier work
[7] = molecular target: T2, Homo sapiens hexokinase IV (HsHxKIV); settings: read-out: KM for D-glucose, non-His-tagged wt-HsHxKIV; cited from earlier work
TbHxK = settings: read-out: Ki, TbHxK; cited from earlier work
[8] = ratio of amastigote IC50 values

In the case of O=C(N[C@H]1C(O)O[C@H](CO)[C@@H](O)[C@@H]1O)c1ccccc1 (stereo partly drawn) [BENZ-GlcN, 2-benzamido-2-deoxy-D-glucopyranose], the “LE (ligand efficiency)” value [1] is reported as 0.30 kcal/mol, the “fold weaker inhibition effect compared to amphotericin B” value [2, 8] is reported as 34 fold and the “fold weaker inhibition effect compared to benznidazole” value [2, 8] is reported as 14 fold.
In the case of O=C(Cn1ccnc1[N+](=O)[O-])NCc1ccccc1 [Benznidazole, N-Benzyl-2-nitro-1H-imidazole-1-acetamide], the IC50 ([3]; ref 50) is given as 1430 nM, the IC50 ([3]; ref 51) is given as 1500 nM and the parasitological cures (T. cruzi parasites) is given as at most 80%.
In the case of O=C(N[C@H]1C(O)O[C@H](CO)[C@@H](O)[C@@H]1O)OCc1ccccc1 (stereo partly drawn) [CBZ-GlcN, 2-N-carboxybenzyl-2-deoxy-D-glucosamine], the TcGlcK selectivity ratio [1] is reported as 245 and the “LE (ligand efficiency)” value [1] is reported as 0.38 kcal/mol.
In the case of OC[C@H]1OC(O)[C@H](O)[C@@H](O)[C@@H]1O (stereo partly drawn) [D-glucose], the Km ([1]; read-out: KM for D-glucose, His6-TcGlcK, room temperature (22 °C), pH 7.6) is given as 948 ± 295 µM, the Km [4] is given as 41800 ± 8700 µM and the Km [5] is given as 60 µM. For the same molecule, the Km [6] was 1000 µM and the Km [7] was 6000 µM.
With O=C(N[C@H]1C(O)O[C@H](CO)[C@@H](O)[C@@H]1O)OCC1=Cc2ccccc2S1(=O)=O (stereo partly drawn) [DBT-GlcN, 2-[[1,1-dioxobenzo[b]thiophen-2-yl]methyloxocarbonylamino]-2-deoxy-D-glucosamine] the “LE (ligand efficiency)” value [1] was 0.27 kcal/mol, the “fold weaker TcGlcK inhibition compared to CBZ-GlcN” value [1] was 6 fold and the “changes in the percent activity” value [2] was “not significant”.
In the case of O=C(CCc1ccc(O)cc1)N[C@H]1C(O)O[C@H](CO)[C@@H](O)[C@@H]1O (stereo partly drawn) [HPOP-GlcN, 2-[[3-(4-hydroxyphenyl)-1-oxopropyl]amino]-2-deoxy-D-glucosamine], the TcGlcK selectivity ratio [1] is reported as 186, the “LE (ligand efficiency)” value [1] is reported as 0.35 kcal/mol and the “fold weaker TcGlcK inhibition compared to CBZ-GlcN” value [1] is reported as 1.8 fold. The “changes in the percent activity” value [2] was “not significant”.
In the case of O=C(N[C@H]1C(O)O[C@H](CO)[C@@H](O)[C@@H]1O)c1cccc(Br)c1 (stereo partly drawn) [m-bromo-benzoyl glucosamine], the Ki (TbHxK) is listed as 2800 nM.
